According to patent US3955959A, “Herbicide for use in transplanted rice” (priority 1974, dated 1976):
Values after ≈ are worked out from the molar mass of the structure shown. Values joined by “and” are separate entries in the source; they are usually repeats but may differ in a detail not shown here. Equal entries are not always repeated.

How the values were obtained:
[1] = test system: Perennials Ek and Sa (Eleocharis kuroguwai, Sagittaria aginashi); assay: Example 1 field test, perennial weed control, Iri, Korea; type: in vivo; conditions: for % Weed Control (Perennials Ek and Sa): weed weight at 63 DAT
Description: In the field test 48 day-old seedlings (Watanabe variety) were transplanted to plots 2.5 × 6 m. seeded with the weed seeds indicated in Table 1. At 5 and 10 DAT periods, the herbicides were applied to the plants (now at the 1.2 and 2.0 leaf stage, respectively, of grass weed) at the indicated rate in kilograms per hectare (kg/ha). The weed control and rice injury results for 3 replications are reported in percentages as of the indicated times of observation. The percentages given in the "Perennials" column are based on the weight of the weeds at 63 DAT, i.e., 42 gms/3.6 m^2 for the weedy check.

[2] = test system: Ec (Echinochloa crusgalli); assay: Example 5 field test, weed control, JAAPR, Japan; type: in vivo
[3] = Example 10 fish toxicity, Japanese protocol; type: in vivo, carp; conditions: carp, in vivo, read-out: Medium Lethal Concentration
Method: In view of the importance of fish toxicological considerations, tests were conducted, using carp according to the Japanese protocol, to compare toxicity data for Herbicides A and B; results of those tests are shown in Table 10.

Echinochloa crusgalli = assay: Example 2 field test, weed control, Chia Yi, Taiwan; type: in vivo; conditions: obs. 63 DAT
Method: In the field tests of the herbicide of this invention with transplanted rice, the rice seedlings were grown in conventional manner, by seeding the rice in a typical seedbed of sandy loam to clay soil of the country wherein the test was conducted. For laboratory and greenhouse work the seedlings were obtained by seeding rice in a mixture of soil, e.g., Ray silt loam, and peat in wood flats. For purposes of testing the herbicides on younger rice seedlings (infant or Dapog) the rice was usually allowed to grow for 6-15 days before lifting for transplanting. Older (ordinary) rice plants were usually grown for a period of about 2-3 weeks, or as much as about 7 weeks before lifting. Since the period of growth is dependent upon climatic conditions, a better measure of when to transplant the rice seedling is the leaf stage of growth; for infant or Dapog rice the seedling is lifted at the 1.5-2 leaf stage of growth, and for ordinary seedlings at the 2.5-5 leaf stage. The seedlings were then transplanted to the test plots for evaluation of the herbicide for injury against weed species present with the transplanted rice. The herbicides were then applied to the growth medium of the weeds and transplant rice, either preemergent or postemergent with respect to the weeds and postemergent with respect to the transplanted rice. […] Application rates given in the tables refer to the amount of active ingredient used.
Rice seedlings (ordinary) of Tainan No. 5 variety (japonica) were transplanted at 19 days of growth. Granular formulations of Herbicides A and B were applied at the 1 leaf stage of grass weed (4 DAT) and 2.5 leaf stage of grass weed (10 DAT).

[4] = test system: Mv (Monochoria vaginalis); assay: Example 5 field test, weed control, JAAPR, Japan; type: in vivo
[5] = test system: Ea (Eleocharis acicularis); assay: Example 5 field test, weed control, JAAPR, Japan; type: in vivo
[6] = test system: transplanted rice (ordinary and infant seedlings); assay: Example 5 field test, rice yield; type: in vivo
Method: (§1) In the tests described in the tables below, the herbicides were formulated and used in granular form in conventional manner. […] The commercial herbicide used was a granular product having 5% active ingredient.
(§2) In the field tests of the herbicide of this invention with transplanted rice, the rice seedlings were grown in conventional manner, by seeding the rice in a typical seedbed of sandy loam to clay soil of the country wherein the test was conducted. For laboratory and greenhouse work the seedlings were obtained by seeding rice in a mixture of soil, e.g., Ray silt loam, and peat in wood flats. For purposes of testing the herbicides on younger rice seedlings (infant or Dapog) the rice was usually allowed to grow for 6-15 days before lifting for transplanting. Older (ordinary) rice plants were usually grown for a period of about 2-3 weeks, or as much as about 7 weeks before lifting. Since the period of growth is dependent upon climatic conditions, a better measure of when to transplant the rice seedling is the leaf stage of growth; for infant or Dapog rice the seedling is lifted at the 1.5-2 leaf stage of growth, and for ordinary seedlings at the 2.5-5 leaf stage. The seedlings were then transplanted to the test plots for evaluation of the herbicide for injury against weed species present with the transplanted rice. The herbicides were then applied to the growth medium of the weeds and transplant rice, either preemergent or postemergent with respect to the weeds and postemergent with respect to the transplanted rice. Application times are designated in the tables as "DAT", meaning "days after transplant". Application rates given in the tables refer to the amount of active ingredient used.
(§3) The rice seedlings were grown to the 1.7 leaf stage for infant seedlings and to the 5.5 leaf stage for ordinary seedlings. Two days after puddling the soil in which the seedlings were to be transplanted, both infant and ordinary seedlings were transplanted into plots 8.5 m^2.
(§4) The weed symbol "Obw" represents "other broadleaf weeds" of unspecified identity. Results presented in Table 5 represent the average of 2 replications.

Ce (Cyperus esculentus) = assay: Example 7 greenhouse preemergence activity; type: in vivo
Method: In a further comparative study of the preemergence activity of Herbicides A and B, a variety of weeds and upland direct-seeded rice were tested under greenhouse conditions. The present invention is not concerned with the use of Herbicide A in direct-seeded rice. The primary purpose of the experimental work in this example is to compare relative herbicidal activity of Herbicides A and B against the weeds shown in Table 7; most of these weeds were not available for tests with transplanted rice. Although the relative selectivity of these herbicides in upland rice is also evident, that aspect of the tests is more or less incidental to the purpose of this example.
In this example, rice seeds and seeds of the weeds shown in Table 7 were sown in Ray silt loam soil at a depth of 0.5 inch (1.27 cm) in containers for the soil in a greenhouse. Herbicides A and B were applied to the surface of the soil at a spray volume equivalent to 20 gals/acre (187.1 liters/hectare), followed by 0.5 in (1.27 cm) of overhead irrigation. Temperature and relative humidity in the greenhouse were on the order of 85°F (29°C) and 75%, respectively. Observations were made at 21-28 days after seeding.
In Table 7 are shown the average rates of herbicide required to cause a growth reduction of 85% of the weeds ("GR85 "), and the average rate of herbicide required to cause a growth reduction of 15% ("GR15 ") of the rice plants (Oryza sativa, "Os", variety Bluebelle).

Ann. Cyp (Cyperus spp) = assay: Example 5 field test, weed control, JAAPR, Japan
Method: as §1, §2, §3, §4

[7] = test system: Broadleaf: Mv, Sz (Monochoria vaginalis, Sphenoclea zeylanica); assay: Example 4 field test on ordinary rice, weed control, Munoz, Philippines; type: in vivo, Monochoria vaginalis and Sphenoclea zeylanica; conditions: obs. 36 DAT
Description: Treatments were replicated four times.

[8] = 1.5 kg/ha, 7 DAT, infant seedlings
[9] = 1.5 kg/ha, 7 DAT, ordinary seedlings
[10] = 1.0 kg/ha, 15 DAT, infant seedlings
[11] = 1.0 kg/ha, 15 DAT, ordinary seedlings
[12] = .25 kg/ha, 2 DAT, infant seedlings
[13] = .25 kg/ha, 2 DAT, ordinary seedlings
[14] = .5 kg/ha, 7 DAT, infant seedlings
[15] = .5 kg/ha, 7 DAT, ordinary seedlings

For CCCCOCN(C(=O)CCl)c1c(CC)cccc1CC [Herbicide B, n-(butoxymethyl)-2',6'-diethyl-2-chloroacetanilide, reference compound], the “% Weed Control (Perennials Ek and Sa)” value ([1]; 5 DAT, 1.0 kg/ha) was 0%, the “% Weed Control (Perennials Ek and Sa)” value ([1]; 5 DAT, 1.5 kg/ha) was 41% and the “% Weed Control (Perennials Ek and Sa)” value ([1]; 5 DAT, 3.0 kg/ha) was 0%. The “% Weed Control (Perennials Ek and Sa)” value ([1]; 10 DAT, 1.0 kg/ha) was 0%, the “% Weed Control (Perennials Ek and Sa)” value ([1]; 10 DAT, 1.5 kg/ha) was 0% and the “% Weed Control (Perennials Ek and Sa)” value ([1]; 10 DAT, 3.0 kg/ha) was 0%. The “control of Ec in words” value ([2]; 1.5 kg/ha, 7 DAT) was “substantially complete control”, the “% Weed Control (Ec)” value [2, 8] was 99% and the “% Weed Control (Ec)” value [2, 9] was 81%. The LC50 at 48 h [3] was 1 µg/mL (≈ 3.21 µM), the LC50 at 96 h [3] was 0.76 µg/mL (≈ 2.44 µM) and the “% Weed Control (Echinochloa crusgalli)” value (Echinochloa crusgalli; 4 DAT, 1.0 kg/ha) was 65%. The “% Weed Control (Echinochloa crusgalli)” value (Echinochloa crusgalli; 4 DAT, 1.5 kg/ha) was 92%, the “% Weed Control (Echinochloa crusgalli)” value (Echinochloa crusgalli; 4 DAT, 3.0 kg/ha) was 97% and the “% Weed Control (Echinochloa crusgalli)” value (Echinochloa crusgalli; 10 DAT, 1.0 kg/ha) was 77%. For the same compound, the “% Weed Control (Echinochloa crusgalli)” value (Echinochloa crusgalli; 10 DAT, 1.5 kg/ha) was 78%, the “% Weed Control (Echinochloa crusgalli)” value (Echinochloa crusgalli; 10 DAT, 3.0 kg/ha) was 98% and the “% Weed Control (Mv)” value [4, 8] was 66%. The “% Weed Control (Mv)” value [4, 9] was 86%, the “control of Ea in words” value ([5]; 1.5 kg/ha, 7 DAT) was “complete control” and the “% Weed Control (Ea)” value [5, 8] was 100%. For the same compound, the “% Weed Control (Ea)” value [5, 9] was 93%, the “Yield % of H.W.C.” value [6, 8] was 99% and the “Yield % of H.W.C.” value [6, 9] was 92%. The “resistance of Ce” value (Ce (Cyperus esculentus)) was “resists”, the “control of Ann. Cyp in words” value (Ann. Cyp (Cyperus spp); 1.5 kg/ha, 7 DAT) was “substantially complete control” and the “% Weed Control (Ann. Cyp)” value (Ann. Cyp (Cyperus spp); [8]) was 100%. For the same compound, the “% Weed Control (Ann. Cyp)” value (Ann. Cyp (Cyperus spp); [9]) was 99%, the “% Weed control, Broadleaf (Mv,Sz)” value ([7]; 5 DAT, 1.0 kg/ha) was 100% and the “% Weed control, Broadleaf (Mv,Sz)” value ([7]; 5 DAT, 1.5 kg/ha) was 100%. For the same compound, the “% Weed control, Broadleaf (Mv,Sz)” value ([7]; 5 DAT, 3.0 kg/ha) was 100%, the “% Weed control, Broadleaf (Mv,Sz)” value ([7]; 14 DAT, 1.0 kg/ha) was 0% and the “% Weed control, Broadleaf (Mv,Sz)” value ([7]; 14 DAT, 1.5 kg/ha) was 0%. For the same compound, the “% Weed control, Broadleaf (Mv,Sz)” value ([7]; 14 DAT, 3.0 kg/ha) was 50%.
For CCCCOCN(C(=O)CCl)c1c(C)cccc1C(C)(C)C [Herbicide A, n-(butoxymethyl)-6'-tert-butyl-2-chloro-o-acetotoluidide], the “% Weed Control (Perennials Ek and Sa)” value ([1]; 5 DAT, 1.0 kg/ha) was 68%, the “% Weed Control (Perennials Ek and Sa)” value ([1]; 5 DAT, 2.0 kg/ha) was 100% and the “% Weed Control (Perennials Ek and Sa)” value ([1]; 5 DAT, .25 kg/ha) was 0%. For the same compound, the “% Weed Control (Perennials Ek and Sa)” value ([1]; 5 DAT, .5 kg/ha) was 55%, the “% Weed Control (Perennials Ek and Sa)” value ([1]; 10 DAT, 1.0 kg/ha) was 0% and the “% Weed Control (Perennials Ek and Sa)” value ([1]; 10 DAT, 2.0 kg/ha) was 0%. The “% Weed Control (Perennials Ek and Sa)” value ([1]; 10 DAT, .25 kg/ha) was 0%, the “% Weed Control (Perennials Ek and Sa)” value ([1]; 10 DAT, .5 kg/ha) was 2% and the perennial control ([1]; at 14 DAT and at rates less than 2 kgs/ha applied 5 DAT) was “less than adequate”. For the same compound, the “% Weed Control (Ec)” value [2, 10] was 100%, the “% Weed Control (Ec)” value [2, 11] was 100% and the “% Weed Control (Ec)” value [2, 12] was 100%. For the same compound, the “% Weed Control (Ec)” value [2, 13] was 100%, the “% Weed Control (Ec)” value [2, 14] was 100% and the “% Weed Control (Ec)” value [2, 15] was 100%. For the same compound, the “control of Ec in words” value ([2]; both plots, all rates) was “controlled”, the LC50 at 48 h [3] was 1.8 µg/mL (≈ 5.52 µM) and the LC50 at 96 h [3] was 1.4 µg/mL (≈ 4.3 µM). The “% Weed Control (Echinochloa crusgalli)” value (Echinochloa crusgalli; 4 DAT, 1.0 kg/ha) was 100%, the “% Weed Control (Echinochloa crusgalli)” value (Echinochloa crusgalli; 4 DAT, 2.0 kg/ha) was 100% and the “% Weed Control (Echinochloa crusgalli)” value (Echinochloa crusgalli; 4 DAT, .25 kg/ha) was 85%. The “% Weed Control (Echinochloa crusgalli)” value (Echinochloa crusgalli; 4 DAT, .5 kg/ha) was 98%, the “% Weed Control (Echinochloa crusgalli)” value (Echinochloa crusgalli; 10 DAT, 1.0 kg/ha) was 100% and the “% Weed Control (Echinochloa crusgalli)” value (Echinochloa crusgalli; 10 DAT, 2.0 kg/ha) was 100%. The “% Weed Control (Echinochloa crusgalli)” value (Echinochloa crusgalli; 10 DAT, .25 kg/ha) was 65%, the “% Weed Control (Echinochloa crusgalli)” value (Echinochloa crusgalli; 10 DAT, .5 kg/ha) was 95% and the “% Weed Control (Mv)” value [4, 10] was 67%. For the same compound, the “% Weed Control (Mv)” value [4, 11] was 62%, the “% Weed Control (Mv)” value [4, 12] was 80% and the “% Weed Control (Mv)” value [4, 13] was 80%. For the same compound, the “% Weed Control (Mv)” value [4, 14] was 60%, the “% Weed Control (Mv)” value [4, 15] was 62% and the “% Weed Control (Ea)” value [5, 10] was 89%. The “% Weed Control (Ea)” value [5, 11] was 90%, the “% Weed Control (Ea)” value [5, 12] was 87% and the “% Weed Control (Ea)” value [5, 13] was 79%. The “% Weed Control (Ea)” value [5, 14] was 89%, the “% Weed Control (Ea)” value [5, 15] was 98% and the “Yield % of H.W.C.” value ([6]; in vivo) was 97% and 95% and 96% and 98% and 99% and 102%. For the same compound, the “yields vs Herbicide B at 1.5 kg/ha 7 DAT” value ([6]; in vivo) was “essentially the same”, the “resistance of Ce” value (Ce (Cyperus esculentus)) was “resistant” and the “control of Ann. Cyp in words” value (Ann. Cyp (Cyperus spp); 0.25 kg/ha both plots, 1.0 kg/ha ordinary) was “controlled completely”. The “% Weed Control (Ann. Cyp)” value (Ann. Cyp (Cyperus spp); [10]) was 100%, the “% Weed Control (Ann. Cyp)” value (Ann. Cyp (Cyperus spp); [11]) was 100% and the “control of Ann. Cyp in words” value (Ann. Cyp (Cyperus spp); 1.0 kg/ha, infant seedling plots) was “controlled”. The “% Weed Control (Ann. Cyp)” value (Ann. Cyp (Cyperus spp); [12]) was 100%, the “% Weed Control (Ann. Cyp)” value (Ann. Cyp (Cyperus spp); [13]) was 100% and the “% Weed Control (Ann. Cyp)” value (Ann. Cyp (Cyperus spp); [14]) was 75%. For the same compound, the “% Weed Control (Ann. Cyp)” value (Ann. Cyp (Cyperus spp); [15]) was 80%, the “% Weed control, Broadleaf (Mv,Sz)” value ([7]; 5 DAT, 1.0 kg/ha) was 100% and the “% Weed control, Broadleaf (Mv,Sz)” value ([7]; 5 DAT, 2.0 kg/ha) was 100%. For the same compound, the “% Weed control, Broadleaf (Mv,Sz)” value ([7]; 5 DAT, .25 kg/ha) was 100%, the “% Weed control, Broadleaf (Mv,Sz)” value ([7]; 5 DAT, .5 kg/ha) was 100% and the “% Weed control, Broadleaf (Mv,Sz)” value ([7]; 14 DAT, 1.0 kg/ha) was 60%. For the same compound, the “% Weed control, Broadleaf (Mv,Sz)” value ([7]; 14 DAT, 2.0 kg/ha) was 60%, the “% Weed control, Broadleaf (Mv,Sz)” value ([7]; 14 DAT, .25 kg/ha) was 50% and the “% Weed control, Broadleaf (Mv,Sz)” value ([7]; 14 DAT, .5 kg/ha) was 50%.
